{
  "source": "patent US8530680B2",
  "about": "“System and method for controlling growth of microorganisms with brominated furanones” (Syracuse University, priority 2008, dated 2013)",
  "key": {"C. albicans": {"tested_on": "C. albicans", "test": "C. albicans specific growth rate in a shake flask (data not shown)", "assay_type": "cell-based, Candida albicans", "conditions": "3 μg/mL, after 3 hours of treatment"}, "[1]": {"tested_on": "six fungal strains (Gloeophyllum trabeum, Chaetomium globosum, Trametes versicolor)", "test": "Fungal growth on MEA plates with furanone, statements for all six strains", "assay_type": "cell-based", "conditions": "1 to 60 μg/mL", "experimental": "This Example examines the effect of brominated furanones on the growth of fungi associated with damage to building material. Six fungal strains were the subject of these experiments; Gloeophyllum trabeum (strains GT598 and GT599), Chaetomium globosum (wildtype strain and CG572), and Trametes versicolor (strains TV7B2-59 and TV57MAD277). The species were developed on 2% Malt-Extract Agar (MEA) plates and stored inverted at 4° C. The stocks were refreshed by streaking new plates every two months.\nThe brominated and non-brominated furanones were added to MAE agar plates at different concentrations. The brominated furanones were dissolved in either ethanol (“EtOH”) or methanol (“MeOH”) as stock solutions, as shown in Table 5. The non-brominated furanones were purchased from Sigma (St. Louis, Mo.). The furanone stocks were stored at 4° C.\nMAE agar plates containing the same amounts of ethanol/methanol were also prepared as negative controls to eliminate any solvent effects. The plates were prepared using either 90 mm or 60 mm petri dishes and were stored inverted at 4° C. until use.\nDifferent concentrations of furanones were studied to compare their antifungal activities. The plates were inoculated with the six fungal strains using a platinum loop and were incubated upside down at 30° C. for 7 days to monitor the growth. The initial screening was performed using a single 60 μg/mL furanone concentration."}, "[2]": {"tested_on": "C. albicans strain SC5341 gene expression", "test": "DNA microarray gene expression of C. albicans after BF1 treatment", "assay_type": "cell-based, Candida albicans", "conditions": "for Induction expression ratio: 3 μg/mL BF1, 45 minutes", "experimental": "An overnight culture of C. albicans strain SC5341 grown in SD medium was sub-cultured in 25 mL of the same medium to an initial OD600 of 0.005 and grown till the OD600 was 1.0. The culture was diluted using fresh SD medium to a volume of 100 mL with an initial OD600 of 0.6, and it was grown till the OD600 reached 1.0, which took approximately 2 hours. Then the culture was split into two equal portions, with 3 μg/mL of BF1 added to the first one and the same amount of ethanol added to the second one to eliminate the effects of ethanol. […] Forty-five minutes after BF1 addition, the cells were harvested by centrifugation at 13,200 rpm at 4° C. for 30 sec and stored at −80° C. until RNA isolation. To lyse the cells, 1.5 mL of Trizol reagent (Invitrogen® Co., Carlsbad, Calif.) and 0.5 mL of 0.5 mm glass beads were added to the frozen tubes containing C. albicans cell pellets. The tubes were closed tightly and beaten for 30 sec at 4,800 oscillations/minute using a mini bead beater (Biospec Products Inc., Bartlesville, Okla.). The total RNA was extracted using Trizol reagent by following the manufacture's protocol. The extracted RNA was further cleaned up using an RNeasy mini-kit (QIAGEN® Inc., Valencia, Calif.), including on-column DNA digestion with RNase-free DNase I. The RNA yield was quantified by OD260 reading, and the RNA integrity was checked, using agarose gel electrophoresis. The RNA samples were sent to the DNA MicroArray Lab at the Biotechnology Research Institute, National Research Council of Canada (Montreal, Canada) to further check the integrity and DNA microarray hybridization. RNA from a control sample and that from a furanone-treated sample were hybridized to each array. A total of four DNA microarrays were used and four biological replicates were tested. The data were analyzed using Genespring GX version 7.3 (Agilent Technologies®, Santa Clara Calif.). […] Gene functions were annotated by searching the Candida Genome Database at (www.candidagenome.org)."}},
  "data": [
    {"compound": "CCCCC1=C(Br)/C(=C/Br)OC1=O", "note": "[BF1, 4-bromo-5Z-(bromomethylene)-3-butylfuran-2-one]", "values": [
      {"measurement": "reduction of specific growth rate", "setting": "C. albicans", "value": "approximately 50%"},
      {"measurement": "growth inhibition of the six fungal strains, comparison", "setting": "[1]", "value": "effective at preventing growth in low concentrations"},
      {"measurement": "Induction expression ratio", "setting": "[2]; orf19.113 CIP1", "value": 3.17},
      {"measurement": "Induction expression ratio", "setting": "[2]; orf19.1167", "value": 1.65},
      {"measurement": "Induction expression ratio", "setting": "[2]; orf19.1237 ARO9", "value": 1.87},
      {"measurement": "Induction expression ratio", "setting": "[2]; orf19.125 EBP1", "value": 13.87},
      {"measurement": "Induction expression ratio", "setting": "[2]; orf19.1286", "value": 1.97},
      {"measurement": "Induction expression ratio", "setting": "[2]; orf19.1421 DAL3", "value": 1.58},
      {"measurement": "Induction expression ratio", "setting": "[2]; orf19.1783 YOR1", "value": 1.78},
      {"measurement": "induction of gene CPD1 in DNA microarray", "setting": "[2]; orf19.2175 (CPD1), 3 μg/mL BF1", "value": 12.94, "unit": "fold"},
      {"measurement": "Induction expression ratio", "setting": "[2]; orf19.2175", "value": 10.94},
      {"measurement": "Induction expression ratio", "setting": "[2]; orf19.2262", "value": 2.68},
      {"measurement": "Induction expression ratio", "setting": "[2]; orf19.23 RTA3", "value": 5.01},
      {"measurement": "Induction expression ratio", "setting": "[2]; orf19.2396 IFR2", "value": 2.05},
      {"measurement": "Induction expression ratio", "setting": "[2]; orf19.2693", "value": 3.97},
      {"measurement": "Induction expression ratio", "setting": "[2]; orf19.2825 DRE2", "value": 1.69},
      {"measurement": "Induction expression ratio", "setting": "[2]; orf19.3131 OYE32", "value": 12.89},
      {"measurement": "Induction expression ratio", "setting": "[2]; orf19.3139", "value": 8.82},
      {"measurement": "Induction expression ratio", "setting": "[2]; orf19.320", "value": 14.98},
      {"measurement": "Induction expression ratio", "setting": "[2]; orf19.3234 OYE22", "value": 4.00},
      {"measurement": "Induction expression ratio", "setting": "[2]; orf19.3340 SOD2", "value": 1.72},
      {"measurement": "Induction expression ratio", "setting": "[2]; orf19.3433 OYE23", "value": 20.04},
      {"measurement": "Induction expression ratio", "setting": "[2]; orf19.3443 OYE2", "value": 3.30},
      {"measurement": "Induction expression ratio", "setting": "[2]; orf19.3707 YHB1", "value": 2.65},
      {"measurement": "Induction expression ratio", "setting": "[2]; orf19.4940 HIP1", "value": 2.57},
      {"measurement": "Induction expression ratio", "setting": "[2]; orf19.5059 GCS1", "value": 1.96},
      {"measurement": "Induction expression ratio", "setting": "[2]; orf19.5604 MDR1", "value": 5.36},
      {"measurement": "Induction expression ratio", "setting": "[2]; orf19.5992 WOR2", "value": 1.54},
      {"measurement": "Induction expression ratio", "setting": "[2]; orf19.6059 TTR2", "value": 1.80},
      {"measurement": "Induction expression ratio", "setting": "[2]; orf19.6275", "value": 1.94},
      {"measurement": "Induction expression ratio", "setting": "[2]; orf19.6869", "value": 4.21},
      {"measurement": "Induction expression ratio", "setting": "[2]; orf19.7306", "value": 2.87},
      {"measurement": "Induction expression ratio", "setting": "[2]; orf19.7531", "value": 2.53},
      {"measurement": "Induction expression ratio", "setting": "[2]; orf19.896 CHK1", "value": 1.54},
      {"measurement": "Induction expression ratio", "setting": "[2]; orf19.93", "value": 1.53},
      {"measurement": "Induction expression ratio", "setting": "[2]; repressed gene orf19.1097 ALS4", "value": 0.42},
      {"measurement": "Induction expression ratio", "setting": "[2]; repressed gene orf19.1344", "value": 0.60},
      {"measurement": "Induction expression ratio", "setting": "[2]; repressed gene orf19.270", "value": 0.47},
      {"measurement": "Induction expression ratio", "setting": "[2]; repressed gene orf19.2896 SOU1", "value": 0.60},
      {"measurement": "Induction expression ratio", "setting": "[2]; repressed gene orf19.2959.1", "value": 0.64},
      {"measurement": "Induction expression ratio", "setting": "[2]; repressed gene orf19.3066 ENG1", "value": 0.57},
      {"measurement": "Induction expression ratio", "setting": "[2]; repressed gene orf19.3629 DSE1", "value": 0.66},
      {"measurement": "Induction expression ratio", "setting": "[2]; repressed gene orf19.3794 CSR1", "value": 0.60},
      {"measurement": "Induction expression ratio", "setting": "[2]; repressed gene orf19.4337 ESBP6", "value": 0.65},
      {"measurement": "Induction expression ratio", "setting": "[2]; repressed gene orf19.4737 TPO3", "value": 0.60},
      {"measurement": "Induction expression ratio", "setting": "[2]; repressed gene orf19.5170 ENA21", "value": 0.61},
      {"measurement": "Induction expression ratio", "setting": "[2]; repressed gene orf19.5193 FMA1", "value": 0.61},
      {"measurement": "Induction expression ratio", "setting": "[2]; repressed gene orf19.5267", "value": 0.56},
      {"measurement": "Induction expression ratio", "setting": "[2]; repressed gene orf19.5565", "value": 0.43},
      {"measurement": "Induction expression ratio", "setting": "[2]; repressed gene orf19.6073 HMX1", "value": 0.59},
      {"measurement": "Induction expression ratio", "setting": "[2]; repressed gene orf19.6077", "value": 0.51},
      {"measurement": "Induction expression ratio", "setting": "[2]; repressed gene orf19.6245", "value": 0.67},
      {"measurement": "Induction expression ratio", "setting": "[2]; repressed gene orf19.716", "value": 0.51},
      {"measurement": "Induction expression ratio", "setting": "[2]; repressed gene orf19.742 ALD6", "value": 0.33},
      {"measurement": "Induction expression ratio", "setting": "[2]; repressed gene orf19.7502", "value": 0.67},
      {"measurement": "Induction expression ratio", "setting": "[2]; repressed gene orf19.7586 CHT3", "value": 0.66}
    ]}
  ]
}
